Tests used:
Abutilon = assay: Pre-emergence test/greenhouse; format: in vivo; details: 1000 g of ai./ha, after three weeks
Protocol: (§1) Solvent: 5 parts by weight of acetone
(§2) Emulsifier: 1 part by weight of alkylaryl polyglycol ether
(§3) To produce a suitable preparation of active compound, 1 part by weight of active compound is mixed with the stated amount of solvent, the stated amount of emulsifier is added and the concentrate is diluted with water to the desired concentration.
(§4) Seeds of the test plants are sown in normal soil. After about 24 hours, the soil is sprayed with the preparation of active compound in such a way that the particular amounts of active compound desired are employed per unit area. The concentration of the spray liquor is chosen such that the particular amounts of active compound desired are applied in 1000 l of water/ha.
(§5) After three weeks, the degree of damage to the plants is assessed in % damage in comparison to the development of the untreated control.
(§6) 0%=no effect (as untreated control) 100%=total destruction

Alopecurus = assay: Pre-emergence test/greenhouse; format: in vivo; details: after three weeks
Protocol: as §1, §2, §3, §4, §5, §6

Amaranthus = assay: Pre-emergence test/greenhouse; format: in vivo; details: 1000 g of ai./ha, after three weeks
Protocol: as §1, §2, §3, §4, §5, §6

Avena fatua = assay: Pre-emergence test/greenhouse; format: in vivo; details: after three weeks
Protocol: as §1, §2, §3, §4, §5, §6

Galium = assay: Pre-emergence test/greenhouse; format: in vivo; details: 1000 g of ai./ha, after three weeks
Protocol: as §1, §2, §3, §4, §5, §6

Xanthium [1] = assay: Pre-emergence test/greenhouse; format: in vivo; details: 1000 g of ai./ha, after three weeks
Protocol: as §1, §2, §3, §4, §5, §6

Cassia [2] = assay: Post-emergence test/greenhouse; format: in vivo; details: 125 g of ai./ha, after three weeks
Protocol: as §1, §2, §3
as §4, with “Test plants which have a height” for “Seeds”, “5 to 15 cm” for “the test plants”, “are” for “are sown in normal soil. After about 24 hours, the soil is”, “applied” for “employed”
as §5
(§7) 0%=no effect (as untreated control)

Ipomoea [3] = assay: Post-emergence test/greenhouse; format: in vivo; details: after three weeks
Protocol: as §1, §2, §3
as §4, with “Test plants which have a height” for “Seeds”, “5 to 15 cm” for “the test plants”, “are” for “are sown in normal soil. After about 24 hours, the soil is”, “applied” for “employed”
as §5, §7

Matricaria = assay: Post-emergence test/greenhouse; format: in vivo; details: 125 g of ai./ha, after three weeks
Protocol: as §1, §2, §3
as §4, with “Test plants which have a height” for “Seeds”, “5 to 15 cm” for “the test plants”, “are” for “are sown in normal soil. After about 24 hours, the soil is”, “applied” for “employed”
as §5, §7

Polygonum = assay: Post-emergence test/greenhouse; format: in vivo; details: 60 g of ai./ha, after three weeks
Protocol: as §1, §2, §3
as §4, with “Test plants which have a height” for “Seeds”, “5 to 15 cm” for “the test plants”, “are” for “are sown in normal soil. After about 24 hours, the soil is”, “applied” for “employed”
as §5, §7

Solanum = assay: Post-emergence test/greenhouse; format: in vivo; details: 60 g of ai./ha, after three weeks
Protocol: as §1, §2, §3
as §4, with “Test plants which have a height” for “Seeds”, “5 to 15 cm” for “the test plants”, “are” for “are sown in normal soil. After about 24 hours, the soil is”, “applied” for “employed”
as §5, §7

Veronica = assay: Post-emergence test/greenhouse; format: in vivo; details: after three weeks
Protocol: as §1, §2, §3
as §4, with “Test plants which have a height” for “Seeds”, “5 to 15 cm” for “the test plants”, “are” for “are sown in normal soil. After about 24 hours, the soil is”, “applied” for “employed”
as §5, §7

weeds [4] = assay: Pre-emergence test; format: in vivo; details: cf. Table A
Protocol: as §1, §2, §3, §4, §5, §6

weeds [5] = assay: Post-emergence test; format: in vivo; details: cf. Table B
Protocol: as §1, §2, §3
as §4, with “Test plants which have a height” for “Seeds”, “5 to 15 cm” for “the test plants”, “are” for “are sown in normal soil. After about 24 hours, the soil is”, “applied” for “employed”
as §5, §7

Setaria [6] = assay: Pre-emergence test/greenhouse; format: in vivo; details: after three weeks
Protocol: as §1, §2, §3, §4, §5, §6

Echinochloa = assay: Post-emergence test/greenhouse; format: in vivo; details: 125 g of ai./ha, after three weeks
Protocol: as §1, §2, §3
as §4, with “Test plants which have a height” for “Seeds”, “5 to 15 cm” for “the test plants”, “are” for “are sown in normal soil. After about 24 hours, the soil is”, “applied” for “employed”
as §5, §7

Setaria [7] = assay: Post-emergence test/greenhouse; format: in vivo; details: 125 g of ai./ha, after three weeks
Protocol: as §1, §2, §3
as §4, with “Test plants which have a height” for “Seeds”, “5 to 15 cm” for “the test plants”, “are” for “are sown in normal soil. After about 24 hours, the soil is”, “applied” for “employed”
as §5, §7

Xanthium [8] = assay: Post-emergence test/greenhouse; format: in vivo; details: 125 g of ai./ha, after three weeks
Protocol: as §1, §2, §3
as §4, with “Test plants which have a height” for “Seeds”, “5 to 15 cm” for “the test plants”, “are” for “are sown in normal soil. After about 24 hours, the soil is”, “applied” for “employed”
as §5, §7

Cassia [9] = assay: Pre-emergence test/greenhouse; format: in vivo; details: 250 g of ai./ha, after three weeks
Protocol: as §1, §2, §3, §4, §5, §6

Ipomoea [10] = assay: Pre-emergence test/greenhouse; format: in vivo; details: 250 g of ai./ha, after three weeks
Protocol: as §1, §2, §3, §4, §5, §6

Viola = assay: Pre-emergence test/greenhouse; format: in vivo; details: 250 g of ai./ha, after three weeks
Protocol: as §1, §2, §3, §4, §5, §6

Barley = assay: Post-emergence test/greenhouse; format: in vivo; details: 125 g of ai./ha, after three weeks
Protocol: as §1, §2, §3
as §4, with “Test plants which have a height” for “Seeds”, “5 to 15 cm” for “the test plants”, “are” for “are sown in normal soil. After about 24 hours, the soil is”, “applied” for “employed”
as §5, §7

Wheat = assay: Post-emergence test/greenhouse; format: in vivo; details: 125 g of ai./ha, after three weeks
Protocol: as §1, §2, §3
as §4, with “Test plants which have a height” for “Seeds”, “5 to 15 cm” for “the test plants”, “are” for “are sown in normal soil. After about 24 hours, the soil is”, “applied” for “employed”
as §5, §7

Row | SMILES | degree of damage, Abutilon (Abutilon) [%] | degree of damage, Alopecurus (Alopecurus; 1000 g of ai./ha) [%] | degree of damage, Amaranthus (Amaranthus) [%] | degree of damage, Cassia (Cassia [2]) [%] | degree of damage, Ipomoea (Ipomoea [3]; 125 g of ai./ha) [%] | degree of damage, Matricaria (Matricaria) [%] | degree of damage, Veronica (Veronica; 125 g of ai./ha) [%] | action against weeds compared with known compound (A) (weeds [4]) | activity against weeds compared with known compound (A) (weeds [5]) | further results
1 | CCC(Nc1nc(N)nc(C(C)F)n1)c1ccccc1 (racemic) [Example 1, 2-amino-4-(1-fluoro-ethyl)-6-(1-phenyl-propyl-amino)-1,3,5-triazine] | 70 | 100 | 100 | 90 | 100 | 80 | 100 | considerably strong action against weeds than the known compound (A) | considerably stronger activity against weeds than the known compound (A) | degree of damage, Avena fatua (Avena fatua; 1000 g of ai./ha): 70%; degree of damage, Galium (Galium): 100%; degree of damage, Xanthium (Xanthium [1]): 100%; degree of damage, Ipomoea (Ipomoea [3]; 60 g of ai./ha): 100%; degree of damage, Polygonum (Polygonum): 100%; degree of damage, Solanum (Solanum): 95%; degree of damage, Veronica (Veronica; 60 g of ai./ha): 95%
2 | CCC(Nc1nc(NC(C)=O)nc(C(C)F)n1)c1ccccc1 (racemic) [Example 2, 2-acetylamino-4-(1-fluoro-ethyl)-6-(1-phenyl-propylamino)-1,3,5-triazine] | 100 | 90 | 100 | 100 | 100 | 95 | 95 | considerably strong action against weeds than the known compound (A) | considerably stronger activity against weeds than the known compound (A) | degree of damage, Setaria (Setaria [6]; 1000 g of ai./ha): 70%; degree of damage, Echinochloa (Echinochloa): 80%; degree of damage, Setaria (Setaria [7]): 80%; degree of damage, Xanthium (Xanthium [8]): 80%; melting point: 118 °C
3 | CC(Nc1nc(N)nc(C(C)(C)F)n1)c1ccccc1 (racemic) [Example 13] | – | – | – | 95 | 100 | – | 100 | considerably strong action against weeds than the known compound (A) | considerably stronger activity against weeds than the known compound (A) | degree of damage, Alopecurus (Alopecurus; 250 g of ai./ha): 90%; degree of damage, Avena fatua (Avena fatua; 250 g of ai./ha): 90%; degree of damage, Cassia (Cassia [9]): 100%; degree of damage, Ipomoea (Ipomoea [10]): 80%; degree of damage, Setaria (Setaria [6]; 250 g of ai./ha): 80%; degree of damage, Viola (Viola): 100%; degree of damage, Barley (Barley): 0%; degree of damage, Wheat (Wheat): 0%

— patent US6399541B1, “Substituted 2,4-diamino-1,3,5-triazines as herbicides” (Bayer Aktiengesellschaft, priority 1997, dated 2002)
